Source: patent US9695155B2, “Herbicidal substituted pyrimidinyloxy benzene compounds” (E. I. DU PONT DE NEMOURS AND COMPANY, priority 2013, dated 2017)

Columns and labels:
[1] = system: corn; experiment: Test A postemergence; assay type: in vivo, Zea mays
Procedure, shortened: (§1)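 Greenhouse pot test, loam/sand soil. Formulation: non-phytotoxic solvent mix plus surfactant. Pre: directed spray onto soil after sowing. Post: plants at 1–2 leaf, 2–10 cm. Rated visually vs untreated controls at ~10 d, 0 (no effect) to 100 (complete control).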

[2] = system: yellow nutsedge; experiment: Test C preemergence; assay type: in vivo, Cyperus esculentus
Source text: Seeds of plant species selected from blackgrass (Alopecurus myosuroides), Italian ryegrass (Lolium multiflorum), wheat, winter (winter wheat, Triticum aestivum), galium (catchweed bedstraw, Galium aparine), corn (Zea mays), large (Lg) crabgrass (Digitaria sanguinalis), giant foxtail (Setaria faberii), johnsongrass (Sorghum halepense), lambsquarters (Chenopodium album), morningglory (Ipomoea coccinea), yellow nutsedge (Cyperus esculentus), pigweed (Amaranthus retroflexus), ragweed (common ragweed, Ambrosia elatior), soybean (Glycine max), barnyardgrass (Echinochloa crus-galli), oilseed rape (Brassica napus), waterhemp (common waterhemp, Amaranthus rudis), kochia (Kochia scoparia), wild oat (Avena fatua), surinam grass (Brachiaria decumbens), foxtail, green (green foxtail, Setaria viridis), goosegrass (Eleusine indica), bromegrass, downy (downy bromegrass, Bromus tectorum), nightshade (eastern black nightshade, Solanum ptycanthum), cocklebur (common cocklebur, Xanthium strumarium), cupgrass, woolly (woolly cupgrass, Eriochloa villosa), bermudagrass (Cynodon dactylon), sunflower, (common oilseed sunflower, Helianthus annuus), Russian thistle (Salsola kali), and velvetleaf (Abutilon theophrasti) were planted into a blend of loam soil and sand and treated preemergence with test chemicals formulated in a non-phytotoxic solvent mixture which included a surfactant.
At the same time, plants selected from these crop and weed species and also barley, winter (winter barley, Hordeum vulgare), windgrass (Apera spica-venti), chickweed (common chickweed, Stellaria media), deadnettle (henbit deadnettle, Lamium amplexicaule), and canarygrass (littleseed canarygrass, Phalaris minor) were planted in pots containing Redi-Earth® planting medium (Scotts Company, 14111 Scottslawn Road, Marysville, Ohio 43041) comprising spaghnum peat moss, vermiculite, wetting agent and starter nutrients and treated with postemergence applications of test chemicals formulated in the same manner. Plants ranged in height from 2 to 18 cm (1- to 4-leaf stage) for postemergence treatments. Treated plants and controls were maintained in a greenhouse for 13 to 15 days, after which time all species were compared to controls and visually evaluated. Plant response ratings, summarized in Table C, are based on a scale of 0 to 100 where 0 is no effect and 100 is complete control. A dash (-) response means no test result.

[3] = system: giant foxtail; experiment: Test C preemergence; assay type: in vivo, Setaria faberii
Procedure, shortened: (§2)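 Injury was assessed visually against controls 13 to 15 days after application, with 0 meaning no effect and 100 full control; missing entries are shown as a dash. Preemergence sprays hit seeded loam–sand soil, postemergence sprays hit 1- to 4-leaf plants.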

[4] = system: velvetleaf; experiment: Test C preemergence; assay type: in vivo, Abutilon theophrasti
Procedure, shortened: as §2

[5] = system: giant foxtail; experiment: Test A postemergence; assay type: in vivo, Setaria faberii
Procedure, shortened: as §1

[6] = system: barnyardgrass; experiment: Test B flooded paddy test; assay type: in vivo, Echinochloa crus-galli; details: Flood, 250 g ai/ha, 0 to 100 scale where 0 is no effect and 100 is complete control
Procedure, shortened: (§3)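 Scores from 0 (no effect) to 100 (complete control) are visual comparisons with controls, taken 13 to 15 days after compound was applied into floodwater 3 cm deep around 2-leaf plants.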

[7] = system: wheat, winter; experiment: Test C preemergence; assay type: in vivo, Triticum aestivum
Procedure, shortened: as §2

[8] = system: barnyardgrass; experiment: Test A postemergence; assay type: in vivo, Echinochloa crus-galli
Procedure, shortened: as §1

[9] = system: Heteranthera limosa; experiment: Test B flooded paddy test; assay type: in vivo; details: Flood, 250 g ai/ha, 0 to 100 scale where 0 is no effect and 100 is complete control
Procedure, shortened: as §3

[10] = system: pigweed; experiment: Test C preemergence; assay type: in vivo, Amaranthus retroflexus
Procedure, shortened: as §2

[11] = 31 g ai/ha, 0 to 100 scale, 0 no effect, 100 complete control
[12] = 125 g ai/ha, 0 to 100 scale, 0 no effect, 100 complete control
[13] = 16 g ai/ha, preemergence, scale 0 to 100 (0 no effect, 100 complete control)
[14] = 125 g ai/ha, preemergence, scale 0 (no effect) to 100 (complete control)
[15] = Preemergence, 62 g ai/ha, scale 0 to 100, 0 no effect, 100 complete control

N#Cc1cccc(Oc2ncc(Cl)cn2)c1-n1cnc(C(F)(F)F)c1 [Compound 252, 3-[(5-chloro-2-pyrimidinyl)oxy]-2-[4-(trifluoromethyl)-1H-imidazol-1-yl]benzonitrile]
Corn plant response rating (crop injury, 0 = no effect, 100 = complete kill) at 31 g/ha ([1]; Zea mays, post-emergence, 240 h, 31 g ai/ha, 0 to 100 scale, 0 no effect, 100 complete control): 20%
Corn plant response rating (crop injury, 0 = no effect, 100 = complete kill) at 125 g/ha ([1]; Zea mays, post-emergence, 240 h, 125 g ai/ha, 0 to 100 scale, 0 no effect, 100 complete control): 60%
Corn plant response rating (crop injury, 0 = no effect, 100 = complete kill) at 500 g/ha ([1]; Zea mays, post-emergence, 240 h, 500 g ai/ha, 0 to 100 scale where 0 is no effect and 100 is complete control): 90%
pest or weed control at 16 g/ha ([2]; Cyperus, pre-emergence, 16 g ai/ha, preemergence, scale 0 to 100 (0 no effect, 100 complete control), read-out: Nutsedge, Yellow plant response rating): 0%
pest or weed control at 125 g/ha ([2]; Cyperus, pre-emergence, 125 g ai/ha, preemergence, scale 0 (no effect) to 100 (complete control), read-out: Nutsedge, Yellow plant response rating): 60%
pest or weed control at 62 g/ha ([2]; Cyperus, pre-emergence, Preemergence, 62 g ai/ha, scale 0 to 100, 0 no effect, 100 complete control, read-out: Plant response rating, Nutsedge, Yellow): 40%
pest or weed control at 16 g/ha ([3]; Setaria faberi, pre-emergence, 16 g ai/ha, preemergence, scale 0 to 100 (0 no effect, 100 complete control), read-out: Foxtail, Giant plant response rating): 35%
pest or weed control at 125 g/ha ([3]; Setaria faberi, pre-emergence, 125 g ai/ha, preemergence, scale 0 (no effect) to 100 (complete control), read-out: Foxtail, Giant plant response rating): 100%
pest or weed control at 62 g/ha ([3]; Setaria faberi, pre-emergence, Preemergence, 62 g ai/ha, scale 0 to 100, 0 no effect, 100 complete control, read-out: Plant response rating, Foxtail, Giant): 100%
pest or weed control at 16 g/ha ([4]; Abutilon theophrasti, pre-emergence, 16 g ai/ha, preemergence, scale 0 to 100 (0 no effect, 100 complete control), read-out: Velvetleaf plant response rating): 75%
pest or weed control at 125 g/ha ([4]; Abutilon theophrasti, pre-emergence, 125 g ai/ha, preemergence, scale 0 (no effect) to 100 (complete control), read-out: Velvetleaf plant response rating): 100%
pest or weed control at 62 g/ha ([4]; Abutilon theophrasti, pre-emergence, Preemergence, 62 g ai/ha, scale 0 to 100, 0 no effect, 100 complete control, read-out: Plant response rating, Velvetleaf): 100%
pest or weed control at 31 g/ha ([5]; Setaria faberi, post-emergence, 240 h, 31 g ai/ha, 0 to 100 scale, 0 no effect, 100 complete control, read-out: Plant response rating, Foxtail, Giant): 20%
pest or weed control at 125 g/ha ([5]; Setaria faberi, post-emergence, 240 h, 125 g ai/ha, 0 to 100 scale, 0 no effect, 100 complete control, read-out: Plant response rating, Foxtail, Giant): 100%
pest or weed control at 500 g/ha ([5]; Setaria faberi, post-emergence, 240 h, 500 g ai/ha, 0 to 100 scale where 0 is no effect and 100 is complete control, read-out: Plant response rating, Foxtail, Giant): 100%
pest or weed control at 250 g/ha ([6]; Echinochloa crus-galli, read-out: Plant response rating, Barnyardgrass): 40%
plant injury at 16 g/ha ([7]; Triticum aestivum, pre-emergence, 16 g ai/ha, preemergence, scale 0 to 100 (0 no effect, 100 complete control), read-out: Wheat plant response rating): 0%
plant injury at 125 g/ha ([7]; Triticum aestivum, pre-emergence, 125 g ai/ha, preemergence, scale 0 (no effect) to 100 (complete control), read-out: Wheat plant response rating): 45%
plant injury at 62 g/ha ([7]; Triticum aestivum, pre-emergence, Preemergence, 62 g ai/ha, scale 0 to 100, 0 no effect, 100 complete control, read-out: Plant response rating, Wheat): 0%
pest or weed control at 31 g/ha ([8]; Echinochloa crus-galli, post-emergence, 240 h, 31 g ai/ha, 0 to 100 scale, 0 no effect, 100 complete control, read-out: Plant response rating, Barnyardgrass): 20%
pest or weed control at 125 g/ha ([8]; Echinochloa crus-galli, post-emergence, 240 h, 125 g ai/ha, 0 to 100 scale, 0 no effect, 100 complete control, read-out: Plant response rating, Barnyardgrass): 100%
pest or weed control at 500 g/ha ([8]; Echinochloa crus-galli, post-emergence, 240 h, 500 g ai/ha, 0 to 100 scale where 0 is no effect and 100 is complete control, read-out: Plant response rating, Barnyardgrass): 100%
pest or weed control at 250 g/ha ([9]; Heteranthera limosa, read-out: Plant response rating, Ducksalad): 75%
pest or weed control at 16 g/ha ([10]; Amaranthus retroflexus, pre-emergence, 16 g ai/ha, preemergence, scale 0 to 100 (0 no effect, 100 complete control), read-out: Pigweed plant response rating): 98%
pest or weed control at 125 g/ha ([10]; Amaranthus retroflexus, pre-emergence, 125 g ai/ha, preemergence, scale 0 (no effect) to 100 (complete control), read-out: Pigweed plant response rating): 100%
pest or weed control at 62 g/ha ([10]; Amaranthus retroflexus, pre-emergence, Preemergence, 62 g ai/ha, scale 0 to 100, 0 no effect, 100 complete control, read-out: Plant response rating, Pigweed): 100%

Fc1cccc(Oc2ncc(Cl)cn2)c1-n1cc(OCC(F)(F)F)cn1 [Compound 270]
Plant response rating, Corn [1, 11]: 20
Plant response rating, Corn [1, 12]: 50
Nutsedge, Yellow plant response rating [2, 13]: 0
Nutsedge, Yellow plant response rating [2, 14]: 45
Plant response rating, Nutsedge, Yellow [2, 15]: 15
Foxtail, Giant plant response rating [3, 13]: 5
Foxtail, Giant plant response rating [3, 14]: 100
Plant response rating, Foxtail, Giant [3, 15]: 100
Velvetleaf plant response rating [4, 13]: 0
Velvetleaf plant response rating [4, 14]: 100
Plant response rating, Velvetleaf [4, 15]: 98
Plant response rating, Foxtail, Giant [5, 11]: 10
Plant response rating, Foxtail, Giant [5, 12]: 90
Plant response rating, Barnyardgrass [6]: 35
Wheat plant response rating [7, 13]: 0
Wheat plant response rating [7, 14]: 5
Plant response rating, Wheat [7, 15]: 0
Plant response rating, Barnyardgrass [8, 11]: 10
Plant response rating, Barnyardgrass [8, 12]: 80
Plant response rating, Ducksalad [9]: 100
Pigweed plant response rating [10, 13]: 100
Pigweed plant response rating [10, 14]: 100
Plant response rating, Pigweed [10, 15]: 100
